The results in this text go back to article PMC7312375, “A Novel, Pan-PDE Inhibitor Exerts Anti-Fibrotic Effects in Human Lung Fibroblasts via Inhibition of TGF-β Signaling and Activation of cAMP/PKA Signaling” (International Journal of Molecular Sciences, 2020).

In assay [1] the test system is TGF-β1-induced MRC-5 cells. As to the kind of experiment: Immunofluorescence, nuclear localization of p-CREB. Format: cell-based, human. The settings on record: 10 µM. On the procedure:
For immunocytochemical labeling, MRC-5 cells were seeded on glass coverslips. Study compounds (10 µM) were added 1 h before TGF-β1 treatment, and analysis was performed after 1 h (p-Smad-2 and p-CREB detection) or 48 h (α-SMA detection) of incubation. Cells were fixed in methanol or 4% formaldehyde solution, permeabilized in 0.2% or 0.1% Triton X-100 solution (for p-Smad-2 and p-CREB or α-SMA, respectively). After incubation in blocking solution the following primary antibodies: rabbit polyclonal, anti-phospho-Smad-2 (Ser465, Ser467) antibody (#44-244G, Thermo Fisher Scientific, Waltham, MA, USA); rabbit polyclonal, anti-phospho-CREB1 (Ser133) antibody (#orb213775, Biorbyt, Cambridge, United Kingdom); mouse monoclonal, anti-α-SMA antibody (#MA5-11547, Thermo Fisher Scientific, Waltham, MA, USA) and secondary antibodies: goat anti-rabbit Alexa Fluor 546 conjugated antibody and goat anti-mouse Alexa Fluor 488 conjugated antibody (#A-11010 and #A-11001, respectively, Invitrogen, Carlsbad, CA, USA) were used. Nuclei were counterstained with Hoechst 33342 dye (Thermo Fisher Scientific, Waltham, MA, USA). Slides were mounted in ProLong™ Glass Antifade Mountant (Invitrogen, Carlsbad, CA, USA) and analyzed using Leica DMiL LED Fluo microscope (for α-SMA and p-CREB visualization, 40× objective) or Leica DMi8 with Thunder Imaging System (for p-Smad-2 visualization, 40× objective), all equipped with LAS-X Software (Leica Microsystems GmbH, Wetzlar, Germany). Experiments were run four times using five randomly selected fields of view, at the same fluorescent time exposure and in a blind-folded manner.

A further assay has as its target T1, PDE4A (Homo sapiens, UniProt P27815).
T1 construct: purchased SignalChem
Kind of assay: PDE-Glo assay, human recombinant PDE4A. Format: biochemical. The settings on record: read-out: PDE-IC50 4A. As for the experimental part: (§1) Inhibitory activities of the investigated compounds against various subtypes of human recombinant (hr)PDEs, namely PDE1A, PDE1B, PDE1C, PDE3A, PDE3B, PDE4A, PDE4B, PDE4D, PDE7A, and PDE8A were assessed using a PDE-Glo^TM Assay Kit (Promega, Madison, WI, USA) according to the protocol provided by the manufacturer. Briefly, appropriate amounts of each enzyme (SignalChem, Richmond, B.C., Canada), diluted with PDE-Glo reaction buffer, were distributed on a 384-well plate (Thermo Scientific, Waltham, MA, USA). The investigated compounds were dissolved in DMSO, diluted with the same vehicle, and mixed with the reaction buffer at a v/v ratio of 1:5. Thereafter, 1 µL of these mixtures and 2.5 µL of the cAMP solution as a substrate were added. The final cAMP concentration was 0.05 µM. The samples were incubated for 10 min at 30 °C. Then, 2.5 µL of termination buffer and 2.5 µL of PDE-Glo detection solution were added to each well and incubated for 20 min. Finally, 10 µL of PDE-Glo kinase reagent was added, and luminescence was measured using the POLARstar Omega plate reader (BMG LABTECH, Ortenberg, Germany). Each sample was prepared in quadruplicate. The relative activities (A, %) of all samples were calculated from the following equation: A = [(LUsample − LUblank)/(LUcontrol − LUblank)]·100%; where LUcontrol is the luminescence of a control sample in the absence of a PDE inhibitor, LUsample is a luminescence of an investigated sample in the presence of an inhibitor, and LUblank is a luminescence of a sample in the absence of enzyme (activity = 0). IC50 values were estimated using non-linear regression.

In assay [2] the test system is MRC-5 cells. Kind of assay: FBS-induced MRC-5 proliferation, alamarBlue assay. Format: cell-based, human. The settings on record: for inhibition at 50 µM: Homo sapiens, MRC5, read-out: inhibition of FBS-induced MRC-5 proliferation rate; for MRC-5 proliferation [% of control]: 48 h with FBS. On the procedure:
The normal human lung fibroblast cell line—MRC-5 (ATCC® CCL-171™, Manassas, VA, USA)—was used in the study. Cells were cultured in Eagle’s Minimum Essential Medium (EMEM, ATCC® 30-2003™, Manassas, VA, USA) supplemented with 10% (v/v) fetal bovine serum (FBS; Gibco, Thermo Fisher Scientific, Waltham, MA, USA) and antibiotics mixture (penicillin, streptomycin, amphotericin B; Gibco, Thermo Fisher Scientific, Waltham, MA, USA) (standard culture medium) in standard culture conditions (5% CO2, 37 °C, 95% humidity). Unless otherwise specified, for the experiments, cells were seeded at a final density (5 × 10^3/cm^2) in standard culture medium for 24 h and then cultured in EMEM at reduced serum content (0.5%; v/v) for additional 24 h. TGF-β1 (BD Biosciences, San Jose, CA, USA) was administered at 5 ng/mL concentration in all experiments.
MRC-5 cell viability was evaluated using CytoTox-ONE™ Homogeneous Membrane Integrity Assay (Promega Corporation, Madison, WI, USA) according to the manufacturer’s protocol. The average fluorescence intensity with an excitation wavelength of 560 nm and an emission wavelength of 590 nm was measured using a microplate reader (SpectraMax® iD3, Molecular Devices, San Jose, CA, USA). Experiments were run three times in duplicates. MRC-5 proliferation was determined using the alamarBlue® assay. Cells were seeded for 24 h in standard culture medium, then serum-starved for an additional three days. Evaluated compounds (1-50 µM) were added 1 h prior FBS (10%, v/v) for an additional 48 h. After incubation, the alamarBlue® reagent (Invitrogen, Life Technologies, Carlsbad, CA, USA), dissolved in Hank’s Balanced Salt Solution (10% v/v; Gibco, Thermo Fisher Scientific, Waltham, MA, USA), was added for 30 min. After the observed color change, the supernatant was transferred to 96-well plates, and the absorbance was measured at 570 and 600 nm. The percent difference in reduction between treated and control cells was calculated according to the manufacturer’s protocol. The experiments were run three times in duplicates.
A general note: Resazurin is reduced to fluorescent resorufin, in cell work by metabolically active cells.

The target of the next assay is T2, PDE3B (Homo sapiens, UniProt Q13370).
T2 construct: purchased SignalChem
T2 sequence (Q13370 whole entry): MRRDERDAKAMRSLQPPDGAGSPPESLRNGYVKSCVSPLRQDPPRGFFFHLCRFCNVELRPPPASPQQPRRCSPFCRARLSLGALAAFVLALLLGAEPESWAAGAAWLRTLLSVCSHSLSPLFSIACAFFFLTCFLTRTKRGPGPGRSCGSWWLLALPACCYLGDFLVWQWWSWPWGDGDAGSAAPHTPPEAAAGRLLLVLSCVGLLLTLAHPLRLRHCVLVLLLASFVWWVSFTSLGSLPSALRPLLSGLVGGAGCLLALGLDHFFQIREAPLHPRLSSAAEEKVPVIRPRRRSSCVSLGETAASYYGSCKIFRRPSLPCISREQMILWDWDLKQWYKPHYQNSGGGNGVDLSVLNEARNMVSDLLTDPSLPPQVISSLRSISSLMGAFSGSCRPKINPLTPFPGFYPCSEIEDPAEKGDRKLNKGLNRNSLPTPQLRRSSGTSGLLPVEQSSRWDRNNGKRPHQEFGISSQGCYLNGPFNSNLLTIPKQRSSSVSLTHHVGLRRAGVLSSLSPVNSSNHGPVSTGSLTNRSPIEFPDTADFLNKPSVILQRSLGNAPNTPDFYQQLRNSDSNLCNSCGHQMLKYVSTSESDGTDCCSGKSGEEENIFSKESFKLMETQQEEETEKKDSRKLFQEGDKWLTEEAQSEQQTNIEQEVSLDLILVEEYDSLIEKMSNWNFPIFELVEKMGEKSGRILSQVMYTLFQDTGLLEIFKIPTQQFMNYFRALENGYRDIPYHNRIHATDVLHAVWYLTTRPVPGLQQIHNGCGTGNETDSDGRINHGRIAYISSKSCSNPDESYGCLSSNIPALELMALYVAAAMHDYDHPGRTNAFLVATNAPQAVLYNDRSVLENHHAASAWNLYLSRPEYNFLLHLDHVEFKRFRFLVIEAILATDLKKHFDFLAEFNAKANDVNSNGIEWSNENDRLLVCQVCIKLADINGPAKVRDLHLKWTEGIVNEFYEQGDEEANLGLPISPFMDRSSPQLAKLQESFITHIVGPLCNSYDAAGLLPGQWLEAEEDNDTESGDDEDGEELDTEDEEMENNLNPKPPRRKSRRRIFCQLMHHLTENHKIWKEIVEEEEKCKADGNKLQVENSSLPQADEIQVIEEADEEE
As to the kind of experiment: PDE-Glo assay, human recombinant PDE3B. The settings on record: read-out: PDE-IC50 3B. In kind it is biochemical. On the procedure:
as §1

In assay [3] the test system is MRC-5 cells. Kind of assay: TGF-β1-induced collagen gel contraction assay. In kind it is cell-based, human. The settings on record: 10 µM, 1 h pre-incubation, 6 h TGF-β1; compared to TGF-β1 alone. As for the experimental part:
A collagen cell contraction assay was performed according to manufactures’ instructions (Cell Biolabs, INC., San Diego, CA, USA). Briefly, MRC-5 was harvested and mixed with a collagen solution. After polymerization, collagen gel lattices were cultured for two days, during which mechanical tension develops. Before releasing the stressed matrix, MRC-5 cells were pre-treated with study compounds (10 µM) for 1 h. Then collagen gels were gently released from the sides of the culture dishes and contraction in the presence of study compounds, and TGF-β1 was initiated. The collagen gel size was monitored at various time points and quantified with the Fiji ImageJ Software (National Institutes of Health, Bethesda, MD, USA, version 1.52q). The experiments were run three times.

T1 sequence (P27815 whole entry): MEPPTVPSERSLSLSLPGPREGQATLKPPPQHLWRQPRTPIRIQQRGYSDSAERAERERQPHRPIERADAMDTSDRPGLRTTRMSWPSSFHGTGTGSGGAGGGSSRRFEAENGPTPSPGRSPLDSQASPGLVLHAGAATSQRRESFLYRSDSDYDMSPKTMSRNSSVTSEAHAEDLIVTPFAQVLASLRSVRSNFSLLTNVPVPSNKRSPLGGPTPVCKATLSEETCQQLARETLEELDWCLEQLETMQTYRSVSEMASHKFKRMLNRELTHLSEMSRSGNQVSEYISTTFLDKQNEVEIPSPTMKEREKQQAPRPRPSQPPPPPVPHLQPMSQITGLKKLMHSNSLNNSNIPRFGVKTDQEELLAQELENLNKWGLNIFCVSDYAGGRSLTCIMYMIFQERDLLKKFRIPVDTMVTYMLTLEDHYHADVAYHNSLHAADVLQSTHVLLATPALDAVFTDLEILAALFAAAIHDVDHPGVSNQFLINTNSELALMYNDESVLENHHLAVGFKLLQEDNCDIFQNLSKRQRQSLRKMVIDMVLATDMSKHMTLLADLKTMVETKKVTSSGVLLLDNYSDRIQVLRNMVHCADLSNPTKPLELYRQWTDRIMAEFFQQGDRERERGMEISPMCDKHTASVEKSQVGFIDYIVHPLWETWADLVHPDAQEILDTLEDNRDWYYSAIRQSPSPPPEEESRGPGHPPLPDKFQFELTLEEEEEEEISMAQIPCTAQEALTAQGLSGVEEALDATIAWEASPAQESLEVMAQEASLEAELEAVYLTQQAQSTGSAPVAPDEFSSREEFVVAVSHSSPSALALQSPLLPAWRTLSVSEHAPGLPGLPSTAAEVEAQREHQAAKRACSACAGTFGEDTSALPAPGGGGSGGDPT

Turning to `CCCCOc1nc2c(c(=O)n(C)c(=O)n2C)n1CCCC(=O)Nc1cc(C(C)(C)C)ccc1O` [Compound 145, 4-(8-butoxy-1,3-dimethyl-2,6-dioxo-1,2,3,6-tetrahydro-7H-purin-7-yl)-N-(5-(tert-butyl)-2-hydroxyphenyl)butanamide], the “elevation of fraction of MRC-5 cells with nuclear p-CREB localization” value in assay [1] stood at 70%. Further, the IC50 (in general, the point on the concentration scale where inhibition reaches its midpoint) is 1.59 µM at PDE4A and 2.05 µM at PDE3B. Moreover, the inhibition at 50 µM in the assay with MRC-5 cells [2] (50 µM) was determined as 58%. Besides, the “MRC-5 proliferation [% of control]” value was 104 % of control with MRC-5 cells [2] (Table S1 (Figure 2B), 1 µM); 91 % of control in the assay on MRC-5 cells [2] (Table S1 (Figure 2B), 5 µM); 84 % of control with MRC-5 cells [2] (Table S1 (Figure 2B), 10 µM); 74 % of control in the assay on MRC-5 cells [2] (Table S1 (Figure 2B), 15 µM); 72 % of control in the assay with MRC-5 cells [2] (Table S1 (Figure 2B), 20 µM); 42 % of control in the assay with MRC-5 cells [2] (Table S1 (Figure 2B), 50 µM). Moreover, the “MRC-5 proliferation [% of control]” value in the assay on MRC-5 cells [2] (Table S2 (Figure 5B), 1 µM) is given as 93 % of control; with MRC-5 cells [2] (Table S2 (Figure 5B), 5 µM) it was 84 % of control; in the assay with MRC-5 cells [2] (Table S2 (Figure 5B), 10 µM), 83 % of control; in the assay on MRC-5 cells [2] (Table S2 (Figure 5B), 50 µM), 46 % of control. Also, the “size of collagen gel lattices (TGF-β1-induced contraction)” value (shortened to “size of collagen gel lattices”) with MRC-5 cells [3] is “restored the size of collagen gel lattices to that of the untreated control”.
As to `CC(C)Cn1c(=O)n(C)c(=O)c2[nH]cnc21` [IBMX, 3-isobutyl-1-methyl-3,7-dihydro-1H-purine-2,6-dione, reference compound], the “elevation of fraction of MRC-5 cells with nuclear p-CREB localization” value in assay [1] is on record as “only a slight increase”. Besides, the IC50 on PDE4A was 16.4 µM; on PDE3B it was 0.31 µM. In the assay on MRC-5 cells [2] (50 µM), the inhibition at 50 µM came to 10%. Further, the “MRC-5 proliferation [% of control]” value is recorded as 102 % of control in the assay on MRC-5 cells [2] (Table S1 (Figure 2B), 1 µM); 99 % of control in the assay on MRC-5 cells [2] (Table S1 (Figure 2B), 5 µM); 98 % of control in the assay with MRC-5 cells [2] (Table S1 (Figure 2B), 10 µM); 100 % of control in the assay with MRC-5 cells [2] (Table S1 (Figure 2B), 15 µM); 95 % of control in the assay on MRC-5 cells [2] (Table S1 (Figure 2B), 20 µM); 90 % of control in the assay on MRC-5 cells [2] (Table S1 (Figure 2B), 50 µM). Besides, in the assay with MRC-5 cells [3], the “size of collagen gel lattices” value is reported as “restored the size of collagen gel lattices to that of the untreated control”.
Turning to `Cn1c(=O)c2c(nc(NCc3ccco3)n2CCCC(=O)NN=Cc2ccc(O)cc2O)n(C)c1=O` [Compound 832, N′-(2,4-dihydroxybenzylidene)-4-(8-((furan-2-ylmethyl)amino)-1,3-dimethyl-2,6-dioxo-1,2,3,6-tetrahydro-7H-purin-7-yl)butanehydrazide], the “elevation of fraction of MRC-5 cells with nuclear p-CREB localization” value in assay [1] is given as “only a slight increase”. In addition, the figures for the IC50 on PDE4A and at PDE3B were 4.75 µM and 0.42 µM, respectively. The inhibition at 50 µM in the assay on MRC-5 cells [2] (50 µM) is 39%. The “MRC-5 proliferation [% of control]” value is recorded as 93 % of control with MRC-5 cells [2] (Table S1 (Figure 2B), 1 µM); 87 % of control in the assay on MRC-5 cells [2] (Table S1 (Figure 2B), 5 µM); 85 % of control in the assay on MRC-5 cells [2] (Table S1 (Figure 2B), 10 µM); 82 % of control in the assay on MRC-5 cells [2] (Table S1 (Figure 2B), 15 µM); 83 % of control in the assay on MRC-5 cells [2] (Table S1 (Figure 2B), 20 µM); 61 % of control with MRC-5 cells [2] (Table S1 (Figure 2B), 50 µM). In addition, the “size of collagen gel lattices” value with MRC-5 cells [3] is on record as “increased only slightly”.
As to `COc1nc2c(c(=O)n(C)c(=O)n2C)n1CC(=O)Nc1ccc(C(C)(C)C)cc1` [Compound 869, N-(4-(tert-butyl)phenyl)-2-(8-methoxy-1,3-dimethyl-2,6-dioxo-1,2,3,6-tetrahydro-7H-purin-7-yl)acetamide], in assay [1], the “elevation of fraction of MRC-5 cells with nuclear p-CREB localization” value is on record as “only a slight increase”. The IC50 on PDE4A amounted to 58.1 µM; at PDE3B it was 157 µM. Further, in the assay with MRC-5 cells [2] (50 µM), the inhibition at 50 µM turned out to be 25%. Also, the “MRC-5 proliferation [% of control]” value in the assay with MRC-5 cells [2] (Table S1 (Figure 2B), 1 µM) is recorded as 91 % of control; with MRC-5 cells [2] (Table S1 (Figure 2B), 5 µM), 89 % of control; with MRC-5 cells [2] (Table S1 (Figure 2B), 10 µM), 90 % of control; in the assay with MRC-5 cells [2] (Table S1 (Figure 2B), 15 µM), 88 % of control; in the assay on MRC-5 cells [2] (Table S1 (Figure 2B), 20 µM), 87 % of control; in the assay with MRC-5 cells [2] (Table S1 (Figure 2B), 50 µM), 75 % of control. Moreover, in the assay on MRC-5 cells [3], the “size of collagen gel lattices” value is “increased only slightly”.
